Patent US7662851B2, “Use of specific cyklolignans” (Axelar AB, priority 2001, dated 2010)

Experiments:
IR tyrosine kinase = target: T1, IR tyrosine kinase (Homo sapiens, UniProt P06213); assay: In vitro tyrosine kinase assay: substrate phosphorylation by IR, cell-free; assay type: biochemical; settings: FIG. 3
T1 construct: Immunoprecipitated IR from HepG2; endogenous in cells; host or cells: HepG2 hepatoma cells (immunoprecipitate)
Description: IGF-1R-catalyzed substrate phosphorylation of polyTyrGlu (pTG) was performed essentially as previously described [Parrizas M., et al., ibid., and Blum G., et al., ibid.]. Immunoprecipitated IR from HepG2, IGF-1R from P6 cell extract and immunodepleted supernatant to assay non-IGF-1R tyrosine kinases. The phosphorylated polymer substrate was probed with a purified phosphotyrosine specific monoclonal antibody conjugated to horseradish peroxidase (HARP). Color was developed with HRP chromogenic substrate o-phenylene-diamine dihydrochloride (OPD). The color was quantitated by spectrophotometry (ELISA reader) and reflects the relative amount of tyrosine kinase. The precipitate was immunoblotted with anti-bodies to IGF-1R and IR to verify the presence of the receptor. Serial dilutions were used to assay the optimal conditions with respect to the amount of IGF-1R and IR. The signal was linear for 30 minutes and was a function of IGF-1R concentration up to 75 ng/well. […] After spectrophotometry the IC50 values of inhibitors were determined using the Regression function of Statistica program.
Therefore we isolated the receptor and determined the effects of picropodophyllin on IGF-1R catalyzed substrate tyrosine phosphorylation and IGF-1R autophosphorylation in-vitro.

[1] = tested on: K562/Vcr30 chronic myeloid leukemia cells; assay: Leukemia cell viability, K562/Vcr30; assay type: cell-based, human; settings: Homo sapiens; K562/Vcr30, 72 h; read-out: IC50 for cell viability
Description: (§1) The human chronic myeloid leukemia K562/S and K562/Vcr30 lines and the acute myeloid leukemia cell lines HL60/0 and HL60/Nov were obtained from ATCC. The K562/S and […] are wild type (non-resistant) cells, whereas K562/Vcr30 and HL60/Nov are cytostatic-resistant sublines. All leukemia cell lines were cultured in RPMI 1640 medium supplemented with 10% fetal bovine serum and with 2 mM L-glutamine, benzylpenicillin (100 U/ml) and streptomycin (100 μg/ml). The cells were grown in tissue culture flasks maintained at 95% air/5% CO2 atmosphere at 37° C. in a humidified incubator. For the experiments cells were cultured in 60-mm plastic dishes or 96-well plastic plates.
(§2) Cell proliferation kit II (Roche Inc.) is based on colorimetric change of the yellow tetrazolium salt XTT in orange formazan dye by the respiratory chain of viable cells (Roehm, N W, et al., J Immunol Methods 142:257-265, 1991). Cells seeded at a concentration of 5000/well in 100 μl medium in a 96-well plate were treated with different drugs in the given concentration. After 24 or 48 h the cells were incubated, according to the manufacturer's protocol, with XTT labelling mixture. After 4 h the formazan dye is quantified using a scanning multiwell spectrophotometer with a 495-nm filter. The absorbance is directly correlated with the number of viable cells. The standard absorbance curve was drawn by means of untreated cells seeded at a concentration of from 1000 to 10 000 cells/well with an increasing rate of 1000 cells/well. All standards and experiments were performed in triplicates.
(§3) Cells of said cell lines were seeded in 96-well plates (25 000 cells/well, medium volume per well was 100 μl), in […] medium supplemented with fetal calf serum. After 24 h picropodophyllin and the derivatives alpha-apopicropodophyllin and beta-apopicropodo-phyllin were added at different concentrations and the cells were incubated for 72 h. Cell viability was then assayed (see above). […] The results are based on 3 different experiments.
(§4) The leukemia cell lines K562/S, […], HL60/0 and HL60/Nov were cultured in 96-well plates as described in Experiment 7. After 24 h, the cells were treated for 72 h with different concentrations of the anti-cancer agent vincristine, with and without co-incubation with 0.05 μM picropodophyllin. […] Cell viability was then assayed. IC50 values for each inhibitor and cell line are shown below (Table 8). The results are based on 3 different experiments.

[2] = tested on: K562/S chronic myeloid leukemia cells; assay: Leukemia cell viability, K562/S; assay type: cell-based, human; settings: Homo sapiens, 72 h, read-out: IC50 for cell viability
Description: as §1, §2, §3, §4

[3] = tested on: ES-1 (Ewing's sarcoma cells) xenografts; assay: Tumor growth of ES-1 xenografts in nude mice; assay type: in vivo; settings: 28 mg/kg i.p. daily 4-6 days, then 4-6 days without treatment, FIG. 6
Description: Control mice were treated with the solvent. 3-6 animals were treated in each group.
Because of the toxicity of podophyllotoxin and deoxypodophyllotoxin, we only used picropodophyllin to analyze effects on tumor xenografts. For this purpose ES-1 (Ewing's sarcoma cells) and BE (melanoma cells) xenografts were established in nude mice. When the ES-1 and BE tumors started growing subcutaneously and were measurable, mice were treated daily with intraperitoneal injections of picropodophyllin (28 mg/kg, which was required for giving an average concentration above 0.05 μM of picropodophyllin in the blood plasma) or 80% DMSO in saline as a carrier for 4-6 days, followed by 4-6 days without treatment. The mice were then killed and the tumors analyzed by an experienced pathologist.

EGFR tyrosine kinase = EGFR tyrosine kinase (Homo sapiens, UniProt P00533); assay: In vitro tyrosine kinase assay: substrate phosphorylation by EGFR, cell-free; assay type: biochemical; settings: FIG. 3
Sequence of EGFR tyrosine kinase (P00533 25-1210): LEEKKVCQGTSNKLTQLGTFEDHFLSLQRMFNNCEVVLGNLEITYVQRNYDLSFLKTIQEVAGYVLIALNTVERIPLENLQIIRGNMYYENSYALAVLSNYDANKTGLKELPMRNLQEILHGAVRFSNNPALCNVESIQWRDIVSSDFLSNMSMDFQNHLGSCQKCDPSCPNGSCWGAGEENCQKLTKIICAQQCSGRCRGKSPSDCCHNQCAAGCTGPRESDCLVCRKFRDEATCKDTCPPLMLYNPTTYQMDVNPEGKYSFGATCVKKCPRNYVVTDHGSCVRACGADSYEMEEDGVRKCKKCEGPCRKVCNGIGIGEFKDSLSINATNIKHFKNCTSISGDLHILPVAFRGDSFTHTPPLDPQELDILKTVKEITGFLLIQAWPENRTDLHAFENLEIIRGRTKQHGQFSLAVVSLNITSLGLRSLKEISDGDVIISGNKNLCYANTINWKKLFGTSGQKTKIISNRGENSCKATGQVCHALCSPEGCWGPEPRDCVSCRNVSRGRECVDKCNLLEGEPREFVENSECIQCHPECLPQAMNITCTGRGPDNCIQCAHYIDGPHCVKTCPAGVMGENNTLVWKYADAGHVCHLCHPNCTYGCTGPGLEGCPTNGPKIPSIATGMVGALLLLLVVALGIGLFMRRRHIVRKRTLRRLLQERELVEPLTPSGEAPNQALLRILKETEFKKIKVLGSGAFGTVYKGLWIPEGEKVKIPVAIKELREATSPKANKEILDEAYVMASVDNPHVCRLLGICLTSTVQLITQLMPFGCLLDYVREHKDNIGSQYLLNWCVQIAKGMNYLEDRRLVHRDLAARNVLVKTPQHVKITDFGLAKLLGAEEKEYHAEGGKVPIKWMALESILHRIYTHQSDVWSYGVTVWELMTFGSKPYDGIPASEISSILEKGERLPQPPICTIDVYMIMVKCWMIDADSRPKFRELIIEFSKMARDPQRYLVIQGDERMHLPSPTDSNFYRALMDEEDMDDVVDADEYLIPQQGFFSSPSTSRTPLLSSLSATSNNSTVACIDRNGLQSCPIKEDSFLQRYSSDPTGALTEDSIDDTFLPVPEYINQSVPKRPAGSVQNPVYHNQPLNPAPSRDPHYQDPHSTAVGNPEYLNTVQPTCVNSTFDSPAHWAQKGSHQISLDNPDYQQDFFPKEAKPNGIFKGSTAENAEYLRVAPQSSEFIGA

β-tubulin = settings: in vitro; read-out: IC50, binding to β-tubulin; cited from earlier work
[4] = tested on: SK-MEL-2 melanoma cell line; assay: Cell viability (XTT, Cell proliferation kit II), SK-MEL-2; assay type: cell-based; settings: Homo sapiens, SK-MEL-2, 48 h
Description: as §2
(§5) 12 different types of cell lines were seeded in 96-well plates (medium volume in a well was 100 μl), at a concentration of 10,000 cells/cm^2 in Minimal Essential Medium supplemented with fetal calf serum. When the cells had reached a concentration of 65,000 cells/cm^2, they were treated with different doses of podophyllotoxin and picropodophyllin for 48 h. Cell viability was then assayed (see above). […]

[5] = tested on: DWB malignant melanoma cell line; assay: Cell viability (XTT), DWB; assay type: cell-based; settings: 48 h
Description: as §2, §5

T1 sequence (P06213 28-1382): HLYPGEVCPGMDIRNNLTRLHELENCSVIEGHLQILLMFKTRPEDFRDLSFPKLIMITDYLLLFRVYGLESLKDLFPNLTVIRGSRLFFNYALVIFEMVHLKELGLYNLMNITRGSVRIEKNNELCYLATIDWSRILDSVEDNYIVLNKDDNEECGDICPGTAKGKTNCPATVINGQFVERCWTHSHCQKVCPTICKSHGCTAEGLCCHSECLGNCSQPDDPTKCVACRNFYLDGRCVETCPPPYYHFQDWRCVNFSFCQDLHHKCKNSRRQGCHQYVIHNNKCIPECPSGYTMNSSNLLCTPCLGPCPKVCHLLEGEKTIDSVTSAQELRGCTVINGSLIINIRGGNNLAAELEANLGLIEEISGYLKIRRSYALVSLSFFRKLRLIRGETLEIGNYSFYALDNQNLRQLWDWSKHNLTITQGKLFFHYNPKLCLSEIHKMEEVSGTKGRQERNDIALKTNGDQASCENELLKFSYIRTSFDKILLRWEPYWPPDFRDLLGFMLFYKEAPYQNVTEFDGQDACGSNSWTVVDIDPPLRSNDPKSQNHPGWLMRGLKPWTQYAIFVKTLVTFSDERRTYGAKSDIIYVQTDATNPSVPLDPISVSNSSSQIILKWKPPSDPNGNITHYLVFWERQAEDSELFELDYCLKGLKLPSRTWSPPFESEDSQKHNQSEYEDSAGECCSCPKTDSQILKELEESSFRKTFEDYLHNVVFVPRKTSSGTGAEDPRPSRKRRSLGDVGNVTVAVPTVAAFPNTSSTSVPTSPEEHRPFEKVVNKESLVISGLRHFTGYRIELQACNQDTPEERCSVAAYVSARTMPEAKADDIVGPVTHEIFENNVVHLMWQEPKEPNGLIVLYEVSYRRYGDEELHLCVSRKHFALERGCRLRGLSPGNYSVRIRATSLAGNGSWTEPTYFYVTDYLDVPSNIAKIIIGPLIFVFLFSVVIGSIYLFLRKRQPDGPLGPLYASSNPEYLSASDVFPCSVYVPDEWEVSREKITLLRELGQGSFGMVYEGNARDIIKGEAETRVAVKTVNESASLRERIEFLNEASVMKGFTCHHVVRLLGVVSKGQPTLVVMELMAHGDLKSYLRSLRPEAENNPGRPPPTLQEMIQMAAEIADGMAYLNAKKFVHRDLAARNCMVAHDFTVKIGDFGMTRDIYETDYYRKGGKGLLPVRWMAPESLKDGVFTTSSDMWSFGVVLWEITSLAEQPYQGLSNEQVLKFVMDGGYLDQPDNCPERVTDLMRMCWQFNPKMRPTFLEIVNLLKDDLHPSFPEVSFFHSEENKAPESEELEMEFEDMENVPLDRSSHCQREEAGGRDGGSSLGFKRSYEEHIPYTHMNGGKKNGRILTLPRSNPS

For `COc1cc([C@@H]2c3cc4c(cc3[C@H](O)[C@H]3COC(=O)[C@@H]23)OCO4)cc(OC)c1OC` [Picropodophyllin, picropodophyllin], the “Interference with substrate phosphorylation of IR tyrosine kinase” value (IR tyrosine kinase) was “failed to interfere”, the IC50 [1] was […] and the IC50 [2] was 320 nM. The “Effect on tumor growth” value [3] was “significantly inhibited growth” and the “Interference with substrate phosphorylation of EGFR tyrosine kinase” value (EGFR tyrosine kinase) was “failed to interfere”.
In the case of `COc1cc([C@@H]2c3cc4c(cc3[C@H](O)[C@H]3COC(=O)[C@H]23)OCO4)cc(OC)c1OC` [Podophyllotoxin, podophyllotoxin], the IC50 (β-tubulin) is given as […], the EC50 [4] is given as 50 nM and the EC50 [5] is given as 40 nM.
